Reference: ChEMBL document CHEMBL5113512, “β-Nitrostyrene derivatives as broad range potential antifungal agents targeting fungal cell wall” (2022)
≈ marks a conversion by molar mass, not a printed value. Calls of active or inactive are those of the source. The rule behind the calls is not given here.

Legend:
[1] = system: Candida; test: Upregulation of HYM1 gene expression in Candida cells; format: functional, cell-based
[2] = system: Candida; test: Downregulation of PGA13 gene expression in Candida cells; format: functional, cell-based
[3] = system: Candida; test: Downregulation of TCP1 gene expression in Candida cells; format: functional, cell-based
[4] = system: Candida albicans; test: Synergistic antifungal activity against Candida albicans ATCC 24433 overexpressing ADCDR1-GFP assessed as fractional inhibitory concentration index incubated for 48 hrs in presence of caspofungin by checker board assay; format: functional
[5] = system: Candida albicans; test: Antifungal activity against Candida albicans ATCC 24433 overexpressing ADCDR1-GFP assessed as inhibition of fungal growth by broth microdilution method; format: functional
[6] = system: Candida albicans; test: Inhibition of drug efflux in Candida albicans ATCC 24433 overexpressing ADCDR1-GFP assessed as reduction in rhodamine 6g efflux preincubated for 45 mins followed by substrate addition and measured after 30 mins; format: functional; details: dose 0.1-100 µg/ml, time 75.0 min, DDE = dose-dependent effect
[7] = system: [Candida] auris; test: Antifungal activity against Candida auris 102 assessed as inhibition of fungal growth by broth microdilution method; format: functional; details: Candidozyma auris
[8] = system: Candida albicans; test: Antifungal activity against Candida albicans ATCC 24433 assessed as inhibition of fungal growth by broth microdilution method; format: functional
[9] = system: Candida albicans; test: Antifungal activity against Candida albicans ATCC 24433 overexpressing transporter protein F5 assessed as inhibition of fungal growth by broth microdilution method; format: functional
[10] = system: Candida albicans; test: Synergistic antifungal activity against Candida albicans SN152 harboring CAS5 mutant assessed as fractional inhibitory concentration index incubated for 48 hrs in presence of Amphotericin B by checker board assay; format: functional
[11] = system: Candida albicans; test: Synergistic antifungal activity against wild type Candida albicans SN152 assessed as Caspofungin MIC incubated for 48 hrs by checker board assay; format: functional
[12] = system: Candida; test: Downregulation of CCT6 gene expression in Candida cells; format: functional, cell-based
[13] = system: Candida albicans; test: Synergistic antifungal activity against wild type Candida albicans SN152 assessed as fractional inhibitory concentration index incubated for 48 hrs in presence of Amphotericin B by checker board assay; format: functional
[14] = system: Candida albicans; test: Synergistic antifungal activity against wild type Candida albicans SN152 assessed as inhibition of fungal growth incubated for 48 hrs in presence of fluconazole by checker board assay; format: functional
[15] = system: Candida parapsilosis; test: Synergistic antifungal activity against Candida parapsilosis ATCC 90018 assessed as SDS MIC incubated for 48 hrs by checker board assay; format: functional; details: Lodderomyces parapsilosis
[16] = system: Candida; test: Upregulation of ARG6 gene expression in Candida cells; format: functional, cell-based
[17] = system: Candida albicans; test: Synergistic antifungal activity against wild type Candida albicans SN152 assessed as fractional inhibitory concentration index incubated for 48 hrs in presence of Caspofungin by checker board assay; format: functional
[18] = system: Candida albicans; test: Fungicidal activity against Candida albicans ATCC 24433 assessed as reduction in fungal growth by measuring reduction in colony count at sub-MIC concentration measured after 48 hrs by time kill assay; format: functional, organism-based
[19] = system: Candida albicans; test: Synergistic antifungal activity against Candida albicans ATCC 24433 assessed as SDS MIC incubated for 48 hrs by checker board assay; format: functional
[20] = system: Candida; test: Downregulation of PGA48 gene expression in Candida cells; format: functional, cell-based
[21] = system: Cell membrane; test: Disruption of membrane integrity in Candida auris CBS10913 assessed as cell shrinkage and lysis by measuring leakage of intracellular material measured after 6 hrs by SEM analysis; details: Candidozyma auris
[22] = system: Candida albicans; test: Synergistic antifungal activity against Candida albicans SN152 harboring CAS5 mutant assessed as inhibition of fungal growth incubated for 48 hrs in presence of fluconazole by checker board assay; format: functional
[23] = system: Candida; test: Downregulation of CPH1 gene expression in Candida cells; format: functional, cell-based
[24] = system: Candida; test: Downregulation of VPS34 gene expression in Candida cells; format: functional, cell-based
[25] = system: Candida albicans; test: Synergistic antifungal activity against Candida albicans SN152 harboring CAS5 mutant assessed as inhibition of fungal growth incubated for 48 hrs in presence of Amphotericin B by checker board assay; format: functional
[26] = system: Candida albicans; test: Synergistic antifungal activity against Candida albicans ATCC 24433 overexpressing ADPDR5-G assessed as fractional inhibitory concentration index incubated for 48 hrs in presence of caspofungin by checker board assay; format: functional
[27] = system: Candida; test: Downregulation of GUT1 gene expression in Candida cells; format: functional, cell-based
[28] = system: Candida albicans; test: Synergistic antifungal activity against wild type Candida albicans SN152 assessed as Amphotericin B MIC incubated for 48 hrs by checker board assay; format: functional
[29] = system: Candida albicans; test: Inhibition of drug efflux in Candida albicans ATCC 24433 overexpressing ADPDR5-GFP assessed as reduction in rhodamine 6g efflux preincubated for 45 mins followed by substrate addition and measured after 30 mins; format: functional; details: dose 0.1-100 µg/ml, time 75.0 min, DDE = dose-dependent effect
[30] = system: [Candida] auris; test: Synergistic antifungal activity against Candida auris CBS10913 assessed as fractional inhibitory concentration index incubated for 48 hrs in presence of SDS by checker board assay; format: functional, Candidozyma auris
[31] = system: Candida; test: Downregulation of RLM1 gene expression in Candida cells; format: functional, cell-based
[32] = system: Candida parapsilosis; test: Synergistic antifungal activity against Candida parapsilosis ATCC 90018 assessed as inhibition of fungal growth incubated for 48 hrs in presence of SDS by checker board assay; format: functional; details: Lodderomyces parapsilosis
[33] = system: Candida; test: Downregulation of CDC15 gene expression in Candida cells; format: functional, cell-based
[34] = system: Candida albicans; test: Synergistic antifungal activity against Candida albicans ATCC 24433 assessed as fractional inhibitory concentration index incubated for 48 hrs in presence of Calcoflour White by checker board assay; format: functional
[35] = system: Candida albicans; test: Inhibition of drug efflux in Candida albicans ATCC 24433 overexpressing AD(1-8)u- assessed as […] in nile red efflux incubated for 30 mins by flow cytometry; format: functional
[36] = system: [Candida] auris; test: Synergistic antifungal activity against Candida auris CBS10913 assessed as SDS MIC incubated for 48 hrs by checker board assay; format: functional; details: Candidozyma auris
[37] = system: Candida; test: Downregulation of VTC3 gene expression in Candida cells; format: functional, cell-based
[38] = system: Candida; test: Downregulation of STT4 gene expression in Candida cells; format: functional, cell-based
[39] = system: [Candida] auris; test: Antifungal activity against wild type Candida auris 102 assessed as inhibition of fungal growth by broth microdilution method; format: functional; details: Candidozyma auris
[40] = system: Candida albicans; test: Downregulation of ATO5 gene expression in Candida albicans ATCC 24433 by qRT-PCR analysis; format: functional
[41] = system: Candida; test: Upregulation of VPH2 gene expression in Candida cells; format: functional, cell-based
[42] = system: Candida; test: Downregulation of CDC4 gene expression in Candida cells; format: functional, cell-based
[43] = system: Candida parapsilosis; test: Synergistic antifungal activity against Candida parapsilosis ATCC 90018 assessed as fractional inhibitory concentration index incubated for 48 hrs in presence of SDS by checker board assay; format: functional
[44] = system: [Candida] auris; test: Synergistic antifungal activity against Candida auris CBS10913 assessed as Calcoflour White MIC incubated for 48 hrs by checker board assay; format: functional; details: Candidozyma auris
[45] = system: Candida; test: Downregulation of PGA57 gene expression in Candida cells; format: functional, cell-based
[46] = system: Candida parapsilosis; test: Synergistic antifungal activity against Candida parapsilosis ATCC 90018 assessed as Congo red MIC incubated for 48 hrs by checker board assay; format: functional; details: Lodderomyces parapsilosis
[47] = system: Candida albicans; test: Upregulation of IFF8 gene expression in Candida albicans ATCC 24433 by qRT-PCR analysis; format: functional
[48] = system: [Candida] auris; test: Synergistic antifungal activity against Candida auris CBS10913 assessed as inhibition of fungal growth incubated for 48 hrs in presence of SDS by checker board assay; format: functional; details: Candidozyma auris

O=[N+]([O-])/C=C/c1ccc(O)cc1
Activity [1]: Active | Activity [2]: Active | Activity [3]: Active | fractional inhibitory concentration index (FICI) [4]: <0.5 | MIC80 [5]: 4 µg/mL (≈ 24.2 µM) | inhibition [6]: Dde | MIC80 [7]: 4 µg/mL (≈ 24.2 µM) | MIC80 [8]: 4 µg/mL (≈ 24.2 µM) | MIC80 [9]: 2 µg/mL (≈ 12.1 µM) | fractional inhibitory concentration index (FICI) [10]: 0.515 | MIC [11]: 0.0312 µg/mL | Activity [12]: Active | fractional inhibitory concentration index (FICI) [13]: 0.507 | MIC [14]: 0.0039 µg/mL | MIC [15]: 25 µg/mL | Activity [16]: Active | fractional inhibitory concentration index (FICI) [17]: 0.257 | Activity [18]: Active | MIC [19]: 12.5 µg/mL | Activity [20]: Active | Activity [21]: Active | MIC [22]: 0.001 µg/mL | Activity [23]: Active | Activity [24]: Active | MIC [25]: 0.0312 µg/mL | fractional inhibitory concentration index (FICI) [26]: <0.5 | Activity [27]: Active | MIC [28]: 0.25 µg/mL | inhibition [29]: Dde | fractional inhibitory concentration index (FICI) [30]: 0.5 | Activity [31]: Active | MIC [32]: 1 µg/mL | Activity [33]: Active | fractional inhibitory concentration index (FICI) [34]: 0.25 | inhibition [35]: Active | MIC [36]: 60 µg/mL | Activity [37]: Active | Activity [38]: Active | MIC80 [39]: 2 µg/mL (≈ 12.1 µM) | Activity [40]: Active | Activity [41]: Active | Activity [42]: Active | fractional inhibitory concentration index (FICI) [43]: 0.375 | MIC [44]: 25 µg/mL | Activity [45]: Active | MIC [46]: 6.25 µg/mL | Activity [47]: Active | MIC [48]: 0.5 µg/mL
